Assay results from ChEMBL document CHEMBL1201862, “PubChem BioAssay data set” (2004).
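96-well plates; 48 h exposure; 5 concentrations. Endpoints by linear interpolation between flanking doses. Not reached: highest tested concentration assigned. Abbreviation: GI50, concentration required for 50% inhibition of growth.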 The source made the active and inactive calls. No stated cut-off is given here; in the data, active = GI50 up to about 1.1 µM and inactive = higher.

Assays:
Assay in all cases: NCI tumour cell line growth inhibition, 48 h
786-0 = system: 786-0
A549 = system: A549
ACHN = system: ACHN
CAKI-1 = system: CAKI-1
COLO 205 = system: COLO 205
DLD-1 = system: DLD-1
DMS-273 = system: DMS-273
HCC 2998 = system: HCC 2998
HCT-116 = system: HCT-116
HCT-15 = system: HCT-15
HL-60 = system: HL-60
HOP-62 = system: HOP-62
HOP-92 = system: HOP-92
HT-29 = system: HT-29
IGROV-1 = system: IGROV-1
K562 = system: K562
KM-20L2 = system: KM-20L2
KM12 = system: KM12
LOX IMVI = system: LOX IMVI
LXFL 529 = system: LXFL 529
M14 = system: M14
M19-MEL = system: M19-MEL
MOLT-4 = system: MOLT-4
Malme-3M = system: Malme-3M
NCI-H226 = system: NCI-H226
NCI-H23 = system: NCI-H23
NCI-H460 = system: NCI-H460
NCI-H522 = system: NCI-H522
OVCAR-3 = system: OVCAR-3
OVCAR-4 = system: OVCAR-4
OVCAR-5 = system: OVCAR-5
OVCAR-8 = system: OVCAR-8
RPMI-8226 = system: RPMI-8226
RXF 631 = system: RXF 631
SF-268 = system: SF-268
SF-295 = system: SF-295
SF-539 = system: SF-539
SK-MEL-28 = system: SK-MEL-28
SK-MEL-2 = system: SK-MEL-2
SK-OV-3 = system: SK-OV-3
SN12C = system: SN12C
SNB-19 = system: SNB-19
SNB-75 = system: SNB-75
SNB-78 = system: SNB-78
SR = system: SR
SW-620 = system: SW-620
TK-10 = system: TK-10
U-251 = system: U-251
UACC-257 = system: UACC-257
UACC-62 = system: UACC-62
UO-31 = system: UO-31
XF498 = system: XF498
A498 = system: A498
CCRF-CEM = system: CCRF-CEM
DMS-114 = system: DMS-114
EKVX = system: EKVX
HOP-18 = system: HOP-18
RXF 393 = system: RXF 393
SK-MEL-5 = system: SK-MEL-5

Measured: GI50

CCOC(=O)C1=C(c2ccccc2)NC(c2ccccc2)=C(C(=O)OCC)c2c1c(=O)cc[nH]c2=O
inactive: 786-0 > 100 µM | A549 > 100 µM | ACHN 72.8 µM | CAKI-1 > 100 µM | COLO 205 > 100 µM | DLD-1 > 100 µM | DMS-273 > 100 µM | HCC 2998 > 100 µM | HCT-116 > 100 µM | HL-60 > 100 µM | HOP-62 > 100 µM | HOP-92 71.6 µM | HT-29 74.8 µM | IGROV-1 > 100 µM | K562 39.9 µM | KM-20L2 > 100 µM | KM12 > 100 µM | LOX IMVI 62.1 µM | LXFL 529 > 100 µM | M14 > 100 µM | M19-MEL > 100 µM | MOLT-4 63.1 µM | Malme-3M > 100 µM | NCI-H226 > 100 µM | NCI-H23 79.4 µM | NCI-H460 > 100 µM | NCI-H522 84.1 µM | OVCAR-3 > 100 µM | OVCAR-4 92.3 µM | OVCAR-5 > 100 µM | OVCAR-8 > 100 µM | RPMI-8226 53.1 µM | RXF 631 34.7 µM | SF-268 > 100 µM | SF-295 86.7 µM | SF-539 > 100 µM | SK-MEL-28 66.1 µM | SK-MEL-2 > 100 µM | SK-OV-3 > 100 µM | SN12C > 100 µM | SNB-19 > 100 µM | SNB-75 > 100 µM | SNB-78 94 µM | SR 83.8 µM | SW-620 > 100 µM | TK-10 > 100 µM | U-251 > 100 µM | UACC-257 99.8 µM | UACC-62 26.4 µM | UO-31 > 100 µM | XF498 > 100 µM
> 100 µM: HCT-15

C/C(=C\C(=O)Nc1ccc2[nH]nnc2c1)Nc1ccc2[nH]nnc2c1
inactive: 786-0 > 100 µM | A498 > 100 µM | A549 > 100 µM | ACHN > 100 µM | CAKI-1 > 100 µM | CCRF-CEM > 100 µM | COLO 205 > 100 µM | DLD-1 > 100 µM | DMS-114 > 100 µM | EKVX > 100 µM | HCC 2998 > 100 µM | HCT-116 > 100 µM | HL-60 > 100 µM | HOP-18 > 100 µM | HOP-62 > 100 µM | HOP-92 > 100 µM | HT-29 > 100 µM | IGROV-1 > 100 µM | K562 > 100 µM | KM-20L2 > 100 µM | KM12 > 100 µM | LOX IMVI > 100 µM | LXFL 529 > 100 µM | M14 > 100 µM | M19-MEL > 100 µM | MOLT-4 > 100 µM | Malme-3M > 100 µM | NCI-H226 > 100 µM | NCI-H23 > 100 µM | NCI-H460 > 100 µM | NCI-H522 > 100 µM | OVCAR-3 > 100 µM | OVCAR-4 > 100 µM | OVCAR-5 > 100 µM | OVCAR-8 > 100 µM | RPMI-8226 > 100 µM | RXF 393 > 100 µM | RXF 631 > 100 µM | SF-268 > 100 µM | SF-295 > 100 µM | SF-539 > 100 µM | SK-MEL-28 > 100 µM | SK-MEL-5 > 100 µM | SK-OV-3 > 100 µM | SN12C > 100 µM | SNB-19 > 100 µM | SNB-75 > 100 µM | SNB-78 > 100 µM | SR > 100 µM | SW-620 > 100 µM | TK-10 > 100 µM | U-251 > 100 µM | UACC-257 > 100 µM | UACC-62 > 100 µM | UO-31 > 100 µM
> 100 µM: HCT-15

CC(C)(O)[C@@H]1CCC(C)([C@H]2[C@@H](O)CC3(C)C4CC(OC5OC(CO)C(O)C(O)C5O)C5C(C)(C)[C@@H](OC6OCC(O)C(O)C6O)CC[C@@]56C[C@@]46CC[C@]23C)O1 (stereo partly specified)
> 100 µM: HCT-15
inactive: 786-0 > 100 µM | A549 > 100 µM | ACHN > 100 µM | CCRF-CEM > 100 µM | COLO 205 > 100 µM | DLD-1 > 100 µM | DMS-114 > 100 µM | DMS-273 > 100 µM | EKVX > 100 µM | HCC 2998 > 100 µM | HCT-116 > 100 µM | HL-60 > 100 µM | HOP-18 > 100 µM | HOP-92 > 100 µM | HT-29 > 100 µM | IGROV-1 > 100 µM | K562 > 100 µM | KM-20L2 > 100 µM | KM12 > 100 µM | LOX IMVI > 100 µM | LXFL 529 > 100 µM | M14 > 100 µM | M19-MEL > 100 µM | MOLT-4 > 100 µM | Malme-3M > 100 µM | NCI-H226 > 100 µM | NCI-H23 > 100 µM | NCI-H460 > 100 µM | NCI-H522 > 100 µM | OVCAR-3 > 100 µM | OVCAR-4 > 100 µM | OVCAR-5 > 100 µM | OVCAR-8 > 100 µM | RPMI-8226 > 100 µM | RXF 393 > 100 µM | SF-268 > 100 µM | SF-295 > 100 µM | SF-539 > 100 µM | SK-MEL-28 > 100 µM | SK-MEL-2 > 100 µM | SK-MEL-5 > 100 µM | SK-OV-3 > 100 µM | SN12C > 100 µM | SNB-19 > 100 µM | SNB-75 > 100 µM | SNB-78 > 100 µM | SR > 100 µM | SW-620 > 100 µM | TK-10 > 100 µM | U-251 > 100 µM | UACC-257 > 100 µM | UACC-62 > 100 µM | UO-31 > 100 µM | XF498 > 100 µM

CCOc1ccc(N2C(=O)/C(=C/c3ccc(N(CCC#N)CCC#N)cc3)N=C2c2cc([N+](=O)[O-])ccc2Cl)cc1
inactive: 786-0 12.4 µM | A498 48.6 µM | A549 45 µM | ACHN 49.9 µM | CAKI-1 14.8 µM | COLO 205 17.6 µM | DLD-1 32.2 µM | DMS-114 33.9 µM | DMS-273 14.7 µM | EKVX 27.4 µM | HCC 2998 37.2 µM | HCT-116 21.6 µM | HL-60 47.6 µM | HOP-18 > 100 µM | HOP-62 73.1 µM | K562 21.3 µM | KM12 18.9 µM | LOX IMVI 23 µM | LXFL 529 30 µM | M14 24.1 µM | M19-MEL 24.2 µM | NCI-H226 42.4 µM | NCI-H23 40.8 µM | NCI-H460 23.5 µM | OVCAR-3 17.7 µM | OVCAR-4 59 µM | OVCAR-5 > 100 µM | OVCAR-8 35.3 µM | RPMI-8226 15.7 µM | RXF 393 12.2 µM | RXF 631 39.6 µM | SF-268 30.8 µM | SF-295 24.2 µM | SF-539 27.2 µM | SK-MEL-28 7.67 µM | SK-MEL-2 > 100 µM | SK-MEL-5 18.6 µM | SK-OV-3 > 100 µM | SN12C 63 µM | SNB-19 35.8 µM | SNB-75 30.3 µM | SNB-78 > 100 µM | SW-620 23 µM | TK-10 58.1 µM | U-251 51.5 µM | UACC-62 26.7 µM | UO-31 39.4 µM
33.8 µM: HCT-15
active: MOLT-4 0.191 µM

COc1cc([C@H]2Oc3cc(O)c4c(=O)cc(-c5ccc(O)cc5)oc4c3O[C@@H]2CO)ccc1O
inactive: 786-0 15.3 µM | A498 16.8 µM | ACHN 12.9 µM | CAKI-1 15.1 µM | CCRF-CEM 13.6 µM | COLO 205 15.2 µM | DLD-1 15.3 µM | DMS-114 15.9 µM | DMS-273 14.2 µM | HCC 2998 15 µM | HCT-116 13.5 µM | HL-60 18.8 µM | HOP-62 14.5 µM | HOP-92 25.5 µM | IGROV-1 19.7 µM | K562 23.4 µM | LXFL 529 15.1 µM | M14 16.8 µM | M19-MEL 17.7 µM | MOLT-4 18.7 µM | Malme-3M 18.8 µM | NCI-H226 18.5 µM | NCI-H23 14.6 µM | NCI-H460 4.54 µM | NCI-H522 4.76 µM | OVCAR-4 20.1 µM | RPMI-8226 16.1 µM | RXF 631 10.6 µM | SF-268 2.28 µM | SF-539 > 10 µM | SK-MEL-28 14.5 µM | SK-MEL-2 16.1 µM | SK-OV-3 14.6 µM | SN12C > 10 µM | SNB-75 5.45 µM | SNB-78 14.6 µM | SR 15.3 µM | UACC-62 11.1 µM | UO-31 12.6 µM
